Data published in US9296704B2, “Substituted pyrimidines as protein kinase inhibitors” (CELGENE AVILOMICS RESEARCH, INC., priority 2007, dated 2016).

How the values were obtained:
BTK = BTK (Homo sapiens, UniProt Q06187); assay: Omnia assay for potency against BTK; format: biochemical; conditions: read-out: BTK Inhibition
From the text: (§1) The protocol below describes continuous-read kinase assays to measure inherent potency of compounds against active forms of EGFR (WT) and EGFR (T790M/L858R) enzymes. The mechanics of the assay platform are best described by the vendor (Invitrogen, Carlsbad, Calif.) on their website at the following URL: http://www.invitrogen.com/content.cfm?pageid=11338 or http://www.invitrogen.com/site/us/en/home/Products-and-Services/Applications/Drug-Discovery/Target-and-Lead-Identification-and-Validation/KinaseBiology/KB-Misc/Biochemical-Assays/Omnia-Kinase-Assays.html.
(§2) Briefly, 10× stocks of EGFR-WT (PV3872) from Invitrogen and EGFR-T790M/L858R (40350) from BPS Bioscience, San Diego, Calif., 1.13×ATP (AS001A) and appropriate Tyr-Sox conjugated peptide substrates (KCZI001) were prepared in 1× kinase reaction buffer consisting of 20 mM Tris, pH 7.5, 5 mM MgCl2, 1 mM EGTA, 5 mM β-glycerophosphate, 5% glycerol (10× stock, KB002A) and 0.2 mM DTT (DS001A). 5 μL of each enzyme were pre-incubated in a Corning (#3574) 384-well, white, non-binding surface microtiter plate (Corning, NY) for 30 min. at 27° C. with a 0.5 μL volume of 50% DMSO and serially diluted compounds prepared in 50% DMSO. Kinase reactions were started with the addition of 45 μL of the ATP/Tyr-Sox peptide substrate mix and monitored every 30-90 seconds for 60 minutes at λex360/λem485 in a Synergy^4 plate reader from BioTek (Winooski, Vt.). At the conclusion of each assay, progress curves from each well were examined for linear reaction kinetics and fit statistics (R^2, 95% confidence interval, absolute sum of squares). Initial velocity (0 minutes to ˜30 minutes) from each reaction was determined from the slope of a plot of relative fluorescence units vs time (minutes) and then plotted against inhibitor concentration to estimate IC50 from log [Inhibitor] vs Response, Variable Slope model in GraphPad Prism from GraphPad Software (San Diego, Calif.).
The Omnia Assay Protocol for potency assessment against BTK is performed in a substantially similar manner as that described in Example 25 above except that the modified BTK-optimized reagent conditions are: • [BTK]=5 nM, [ATP]=[…], [Y5-Sox]=[…] (ATP KMapp ˜[…]).

JAK3 = molecular target: T1, JAK3 (Homo sapiens, UniProt P52333); assay: Omnia assay for potency against JAK3; format: biochemical; conditions: read-out: JAK3 Inhibition
T1 sequence (P52333 1-1124): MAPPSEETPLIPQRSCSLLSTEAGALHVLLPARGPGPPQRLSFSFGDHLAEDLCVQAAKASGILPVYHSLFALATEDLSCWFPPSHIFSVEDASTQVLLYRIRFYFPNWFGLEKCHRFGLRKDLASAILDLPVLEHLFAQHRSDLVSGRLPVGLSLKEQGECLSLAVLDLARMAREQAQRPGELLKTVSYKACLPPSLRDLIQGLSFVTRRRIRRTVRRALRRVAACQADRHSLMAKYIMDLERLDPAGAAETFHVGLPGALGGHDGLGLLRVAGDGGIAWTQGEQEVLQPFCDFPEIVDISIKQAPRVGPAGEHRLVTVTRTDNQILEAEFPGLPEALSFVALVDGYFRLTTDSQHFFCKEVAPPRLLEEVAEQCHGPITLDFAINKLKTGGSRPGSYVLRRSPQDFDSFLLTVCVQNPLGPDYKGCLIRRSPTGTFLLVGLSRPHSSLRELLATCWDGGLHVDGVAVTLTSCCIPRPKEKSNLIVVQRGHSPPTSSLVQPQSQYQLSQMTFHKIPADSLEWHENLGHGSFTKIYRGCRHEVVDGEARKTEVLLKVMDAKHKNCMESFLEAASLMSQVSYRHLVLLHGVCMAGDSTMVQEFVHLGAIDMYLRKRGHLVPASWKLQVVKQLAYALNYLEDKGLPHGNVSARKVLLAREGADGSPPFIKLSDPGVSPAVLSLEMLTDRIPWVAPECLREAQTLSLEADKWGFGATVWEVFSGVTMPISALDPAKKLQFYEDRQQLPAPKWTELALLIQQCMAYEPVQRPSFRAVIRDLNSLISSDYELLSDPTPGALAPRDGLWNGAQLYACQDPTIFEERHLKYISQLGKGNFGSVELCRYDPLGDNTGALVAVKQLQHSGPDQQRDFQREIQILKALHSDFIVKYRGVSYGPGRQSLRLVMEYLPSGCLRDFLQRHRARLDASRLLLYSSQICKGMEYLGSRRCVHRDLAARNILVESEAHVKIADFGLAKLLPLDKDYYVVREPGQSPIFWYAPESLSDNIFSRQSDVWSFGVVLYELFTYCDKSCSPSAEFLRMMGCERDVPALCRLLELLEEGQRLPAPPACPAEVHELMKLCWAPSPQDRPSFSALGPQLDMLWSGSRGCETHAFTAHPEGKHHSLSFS
From the text: as §1, §2
The Omnia Assay Protocol for potency assessment against JAK3 is performed in a substantially similar manner as that described in Example 25 above except that the modified JAK3-optimized reagent conditions are: • [JAK3]=5 nM, [ATP]=5 μM, [Y12-Sox]=5 μM (ATP KMapp ˜[…]).

EGFR (T790M/L858R) = molecular target: T2, EGFR (T790M/L858R) (Homo sapiens, UniProt P00533, L858R/T790M); assay: Omnia continuous-read kinase assay, EGFR (T790M/L858R); format: biochemical; conditions: read-out: EGFR (T790M/L858R) inhibiton
T2 construct: purchased BPS Bioscience 40350
T2 sequence (P00533 25-1210 T790M/L858R): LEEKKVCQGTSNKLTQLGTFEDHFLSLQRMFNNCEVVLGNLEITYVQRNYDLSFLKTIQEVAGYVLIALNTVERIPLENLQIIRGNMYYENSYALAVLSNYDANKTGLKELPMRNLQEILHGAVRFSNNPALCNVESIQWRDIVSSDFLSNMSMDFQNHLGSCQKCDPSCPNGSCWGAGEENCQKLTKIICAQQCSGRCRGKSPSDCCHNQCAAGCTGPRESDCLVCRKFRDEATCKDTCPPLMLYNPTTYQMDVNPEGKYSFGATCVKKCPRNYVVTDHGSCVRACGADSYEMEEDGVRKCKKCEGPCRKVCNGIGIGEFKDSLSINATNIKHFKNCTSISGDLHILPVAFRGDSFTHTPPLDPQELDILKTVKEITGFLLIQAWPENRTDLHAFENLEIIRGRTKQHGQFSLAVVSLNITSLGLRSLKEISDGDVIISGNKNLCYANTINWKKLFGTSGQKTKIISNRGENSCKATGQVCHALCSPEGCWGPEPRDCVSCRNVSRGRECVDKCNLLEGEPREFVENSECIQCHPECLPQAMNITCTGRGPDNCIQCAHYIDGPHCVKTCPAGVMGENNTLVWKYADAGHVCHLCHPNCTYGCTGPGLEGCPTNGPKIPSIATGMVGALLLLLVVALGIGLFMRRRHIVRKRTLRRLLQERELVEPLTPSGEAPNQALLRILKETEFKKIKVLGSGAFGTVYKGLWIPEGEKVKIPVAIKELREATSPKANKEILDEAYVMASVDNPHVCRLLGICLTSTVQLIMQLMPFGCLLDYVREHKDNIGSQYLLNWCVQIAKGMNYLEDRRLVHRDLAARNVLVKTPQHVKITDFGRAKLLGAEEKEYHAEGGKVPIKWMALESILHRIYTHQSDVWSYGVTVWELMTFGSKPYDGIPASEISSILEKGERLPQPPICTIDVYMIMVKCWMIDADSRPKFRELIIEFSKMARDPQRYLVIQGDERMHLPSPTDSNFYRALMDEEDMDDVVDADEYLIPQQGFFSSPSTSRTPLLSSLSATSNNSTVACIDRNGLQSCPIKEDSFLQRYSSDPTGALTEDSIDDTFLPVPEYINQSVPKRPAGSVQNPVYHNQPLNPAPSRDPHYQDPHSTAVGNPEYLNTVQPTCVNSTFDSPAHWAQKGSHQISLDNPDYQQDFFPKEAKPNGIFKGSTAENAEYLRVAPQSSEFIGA
From the text: as §1, §2
(§3) The EGFR-WT- and EGFR T790M/L858R-modified optimized reagent conditions are: • [EGFR-WT]=5 nM, [ATP]=[…], [Y12-Sox]=[…]; and [EGFR-T790M/L858R]=3 nM, [ATP]=[…], [Y12-Sox]=[…].

EGFR (WT) = molecular target: T3, EGFR (WT) (Homo sapiens, UniProt P00533); assay: Omnia continuous-read kinase assay, EGFR (WT); format: biochemical; conditions: read-out: EGFR inhibtion
T3 construct: purchased Invitrogen PV3872
T3 sequence (P00533 25-1210): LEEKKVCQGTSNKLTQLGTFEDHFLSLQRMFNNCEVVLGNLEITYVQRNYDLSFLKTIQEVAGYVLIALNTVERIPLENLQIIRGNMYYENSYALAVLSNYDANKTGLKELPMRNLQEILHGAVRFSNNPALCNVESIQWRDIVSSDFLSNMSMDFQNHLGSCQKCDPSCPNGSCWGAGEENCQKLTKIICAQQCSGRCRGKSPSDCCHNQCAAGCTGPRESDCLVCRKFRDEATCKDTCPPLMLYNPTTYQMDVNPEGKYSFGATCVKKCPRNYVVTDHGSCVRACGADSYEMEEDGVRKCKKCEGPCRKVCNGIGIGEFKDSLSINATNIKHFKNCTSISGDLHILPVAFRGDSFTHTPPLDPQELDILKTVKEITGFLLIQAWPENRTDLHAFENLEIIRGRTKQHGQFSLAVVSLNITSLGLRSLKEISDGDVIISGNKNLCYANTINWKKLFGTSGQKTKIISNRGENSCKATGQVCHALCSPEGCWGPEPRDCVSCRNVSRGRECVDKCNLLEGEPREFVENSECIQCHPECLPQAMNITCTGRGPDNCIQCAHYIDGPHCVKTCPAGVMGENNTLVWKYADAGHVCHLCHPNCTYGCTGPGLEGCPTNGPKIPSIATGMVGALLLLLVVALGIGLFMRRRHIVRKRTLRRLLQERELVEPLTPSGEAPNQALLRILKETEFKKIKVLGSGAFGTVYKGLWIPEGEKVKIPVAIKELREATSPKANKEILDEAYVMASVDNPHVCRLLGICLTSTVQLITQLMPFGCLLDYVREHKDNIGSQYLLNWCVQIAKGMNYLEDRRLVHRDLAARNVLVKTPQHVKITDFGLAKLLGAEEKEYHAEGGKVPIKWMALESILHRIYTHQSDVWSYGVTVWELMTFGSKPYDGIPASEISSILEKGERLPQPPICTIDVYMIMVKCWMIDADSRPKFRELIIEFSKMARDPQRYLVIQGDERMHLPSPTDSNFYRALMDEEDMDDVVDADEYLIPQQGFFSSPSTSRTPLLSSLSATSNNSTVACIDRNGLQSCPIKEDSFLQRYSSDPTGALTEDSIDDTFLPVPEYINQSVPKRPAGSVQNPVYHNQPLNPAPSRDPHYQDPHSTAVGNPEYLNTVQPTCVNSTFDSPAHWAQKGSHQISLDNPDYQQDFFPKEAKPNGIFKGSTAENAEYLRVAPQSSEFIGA
From the text: as §1, §2, §3

ErbB1 = ErbB1 (Homo sapiens, UniProt P00533); assay: Z'-LYTE biochemical assay, ErbB1 kinase inhibition; conditions: @ 1 μM
Sequence of ErbB1 (P00533 25-1210): as above
Experimental: Compounds of the present invention were assayed as inhibitors of one or more of ErbB1, ErbB2, and/or ErbB4 in a manner substantially similar to the method described by Invitrogen Corp (Invitrogen Corporation, 1600 Faraday Avenue, Carlsbad, Calif., CA; http://www.invitrogen.com/downloads/Z-LYTE_Brochure—1205.pdf) using the Z′-LYTE™ biochemical assay procedure or similar biochemical assay. The Z′-LYTE™ biochemical assay employs a fluorescence-based, coupled-enzyme format and is based on the differential sensitivity of phosphorylated and non-phosphorylated peptides to proteolytic cleavage.

Sequence of BTK (Q06187 whole entry): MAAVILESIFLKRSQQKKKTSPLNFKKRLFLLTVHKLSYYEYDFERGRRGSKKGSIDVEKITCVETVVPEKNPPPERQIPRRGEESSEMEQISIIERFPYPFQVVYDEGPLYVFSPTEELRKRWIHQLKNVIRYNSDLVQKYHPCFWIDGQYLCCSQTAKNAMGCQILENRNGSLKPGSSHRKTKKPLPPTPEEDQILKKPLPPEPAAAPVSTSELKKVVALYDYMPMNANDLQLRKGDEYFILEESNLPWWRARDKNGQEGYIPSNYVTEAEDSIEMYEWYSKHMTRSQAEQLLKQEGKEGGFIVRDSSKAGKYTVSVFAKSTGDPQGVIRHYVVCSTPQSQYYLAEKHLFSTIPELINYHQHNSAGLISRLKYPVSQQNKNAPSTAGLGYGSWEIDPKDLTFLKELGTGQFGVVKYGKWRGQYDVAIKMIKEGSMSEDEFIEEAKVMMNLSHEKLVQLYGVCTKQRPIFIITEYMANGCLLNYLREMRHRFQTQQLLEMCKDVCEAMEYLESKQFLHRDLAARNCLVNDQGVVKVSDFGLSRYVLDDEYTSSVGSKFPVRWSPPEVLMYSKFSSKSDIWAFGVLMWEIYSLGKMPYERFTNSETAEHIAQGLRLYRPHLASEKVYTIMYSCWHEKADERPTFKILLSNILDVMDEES

SMILES	IC50 (BTK) [µM]	IC50 (JAK3) [µM]	IC50 (EGFR (T790M/L858R)) [µM]	IC50 (EGFR (WT)) [µM]	inhibition at 1 µM (ErbB1) [%]
CN(C)C/C=C/C(=O)N(C)c1cccc(Nc2cc(Nc3ccc(F)c(Cl)c3)ncn2)c1 [I-48]	0.01 to 0.1	≥ 10	0.1 to 1	0.1 to 1	
C#Cc1cccc(Nc2cc(Nc3cccc(C#C)c3)ncn2)c1 [I-11, N^4,N^6-bis(3-ethynylphenyl)pyrimidine-4,6-diamine]	≥ 10	≥ 10	≥ 10	0.01 to 0.1	79
O=C(CCl)Nc1cccc(Nc2cc(Nc3ccc(F)c(Cl)c3)ncn2)c1 [I-49, 2-chloro-N-{3-[6-(3-chloro-4-fluorophenylamino)-pyrimidin-4-ylamino]-phenyl}-acetamide]	≤ 0.01	≤ 0.01	≤ 0.01	≤ 0.01	
C#Cc1cccc(Nc2cc(Nc3cccc(Br)c3)ncn2)c1 [I-12, N^4-(3-Bromophenyl)-N^6-(3-ethynylphenyl)pyrimidine-4,6-diamine]	≥ 10	≥ 10	≥ 10	0.01 to 0.1	82
CN(C)C/C=C/C(=O)Nc1cccc(Nc2cc(Nc3ccc(OCc4cccc(F)c4)c(Cl)c3)ncn2)c1 [I-46]	0.1 to 1	1 to 10	≤ 0.01	≤ 0.01	
N#CC1(C(=O)Nc2cccc(Nc3cc(Nc4ccc(F)c(Cl)c4)ncn3)c2)CC1 [I-47, N-[3-(6-{3-chloro-4-fluorophenylamino}pyrimidin-4-yl)amino]phenyl-1-cyanocyclopropanecarboxamide]	≥ 10	≥ 10	≥ 10	≤ 0.01	

The remaining lines, values ahead:

IC50 (BTK) [µM]	IC50 (JAK3) [µM]	IC50 (EGFR (T790M/L858R)) [µM]	IC50 (EGFR (WT)) [µM]	inhibition at 1 µM (ErbB1) [%]	SMILES
0.1 to 1	1 to 10	≤ 0.01	≤ 0.01		Cc1ccc(NC(=O)/C=C/CN(C)C)cc1Nc1cc(Nc2ccc(F)c(Cl)c2)ncn1 [I-54, (E)-N-[3-(6-{3-Chloro-4-fluorophenyl}amino-pyrimidin-4-ylamino)-4-methylphenyl]-4-(dimethylamino)but-2-enamide]
0.1 to 1	1 to 10	≤ 0.01	≤ 0.01		COc1ccc(NC(=O)/C=C/CN(C)C)cc1Nc1cc(Nc2ccc(F)c(Cl)c2)ncn1 [I-59]
0.01 to 0.1	≤ 0.01	≤ 0.01	≤ 0.01		C=CC(=O)Nc1cccc(Nc2cc(Nc3ccccc3)ncn2)c1 [I-67, N-3-[6-(phenylamino)-pyrimidin-4-yl]aminophenylpropenamide]
1 to 10	1 to 10	0.1 to 1	1 to 10		CC(=O)N1CCN(C/C=C/C(=O)Nc2cccc(Nc3cc(Nc4cccc(C)c4)ncn3)c2)CC1 [I-60, (E)-N-3-(6-[3-methylphenylamino]-pyrimidin-4-yl)aminophenyl-4-(4-acetylpiperazin-1yl)-2-butenamide]
1 to 10	≥ 10	0.1 to 1			Cc1cccc(Nc2cc(Nc3cccc(NC(=O)/C=C/CN4CCNCC4)c3)ncn2)c1 [I-57, (E)-N-3-(6-[3-methylphenyl]aminopyrimidin-4-yl)aminophenyl-4-piperazinyl-2-butenamide]
1 to 10	0.1 to 1	0.1 to 1			C#CCN(C)C/C=C/C(=O)Nc1cccc(Nc2cc(Nc3cccc(C)c3)ncn2)c1 [I-58, (E)-N-3-(6-[3-methylphenyl]aminopyrimidin-4-yl)aminophenyl-4-(methyl-prop-2-ynyl)amino-2-butenamide]
0.01 to 0.1	0.1 to 1	0.1 to 1	0.01 to 0.1		C=CC(=O)N(C)c1cccc(Nc2cc(Nc3ccc(F)c(Cl)c3)ncn2)c1 [I-53, N-3-[6-(3-chloro-4-fluorophenylamino)pyrimidin-4-yl]aminophenyl-N-methyl-2-propenamide]
0.01 to 0.1	0.01 to 0.1	≤ 0.01	≤ 0.01		O=C(/C=C/CN1CCCC1)Nc1cccc(Nc2cc(Nc3ccc(F)c(Cl)c3)ncn2)c1 [I-56]
≥ 10	≥ 10	1 to 10	≤ 0.01		O=C(Nc1cccc(Nc2cc(Nc3ccc(F)c(Cl)c3)ncn2)c1)C1(C(F)(F)F)CC1 [I-51, N-[3-(6-{3-chloro-4-fluorophenyl}aminopyrimidin-4-yl)aminophenyl]-1-trifluoromethylcyclopropanecarboxamide]
0.01 to 0.1	0.01 to 0.1	≤ 0.01	≤ 0.01		C=CC(=O)Nc1cccc(Nc2cc(Nc3ccc(Br)cc3F)ncn2)c1 [I-55]
